Laboratory results taken from BindingDB's records for PubMed 35073486 (The University of Queensland, 2022).

Tests used:
[1] = Inhibition of P-gp mediated doxorubicin resistance in human SW620/AD300 cells overexpressing P-gp in presence of doxorubicin measured after 52 hrs by MTT assay
[2] = Inhibition of P-gp mediated doxorubicin resistance in human SW620/AD300 cells overexpressing P-gp measured after 48 hrs by MTT assay

SMILES	IC50 [1] [µM]	IC50 [2] [µM]
C[C@@H]1O[C@@H](CC(=O)O)C(=O)c2c1c(O)c1c3c(c4n(c23)[C@H]([C@@H](C)O)CC4)C=CC1=O	1.48	–
C[C@H]1O[C@H](CC(=O)O)Cc2c1c(O)c1c3c(c4n(c23)[C@@H]([C@@H](C)O)CC4)C=CC1=O	1.53	–
COc1cccc2c1C(=O)c1c(O)c3c(c(O)c1C2=O)C[C@@](O)(C(=O)CO)C[C@@H]3O[C@H]1C[C@H](N)[C@H](O)[C@H](C)O1 [Adriamycin]	–	5.75
C[C@@H](O)[C@@H]1CCc2c3c4c(c(O)c(O)c(C[C@@H](O)CC(=O)O)c4n21)C(=O)C=C3	4.49	–
C[C@H]1O[C@]2(C)CC(=O)O[C@]2(C)c2c1c(O)c1c3c(c4n(c23)[C@@H]([C@@H](C)O)CC4)C=CC1=O	7.58	–
C[C@H]1Oc2c(O)c3c4c(c5n(c4c2C[C@H](CC(=O)O)O1)[C@H]([C@@H](C)O)CC5)C=CC3=O	5.04	–

The remaining molecules from weak to strong by IC50 [1], led by results:

IC50 [1] [µM]	IC50 [2] [µM]	SMILES
1.44	–	C[C@H]1OC(CC(=O)O)=Cc2c1c(O)c1c3c(c4n(c23)[C@H]([C@@H](C)O)CC4)C=CC1=O
1.2	–	COC(=O)C[C@H]1Cc2c(c(O)c3c4c(c5n(c24)[C@H]([C@@H](C)O)CC5)C=CC3=O)[C@H](C)O1
1.01	–	C[C@@H]1OC(CC(=O)O)=Cc2c1c(O)c1c3c(c4n(c23)[C@H]([C@@H](C)O)CC4)C=CC1=O
